Where a name gives a salt, the structure may show the parent alone. Read-outs that look alike come from different tables or passages of the source.
Tested on: STING activation (IFNβ release) in iBMDMs
Experiment: IFNβ release ELISA after STING ligand (or LPS) stimulation, iBMDMs
Type: cell-based, mouse
How it was run: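 iBMDMs were stimulated with a STING ligand such as 3′3′-cGAMP, or with LPS. Secreted IFNβ in culture medium was measured by commercial mouse or human IFNβ ELISA.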

[1] = iBMDMs, 3′3′-cGAMP 10 μg/ml, 16 hours, compound 10 μM

Row | Compound | fold increase in IFN-β release [1] | further results
1 | Cc1cc(C(N)=O)ccc1-n1c(CCC(=O)O)ccc1-c1ccc(-n2ccnc2)cc1 [N6022] | 0.75 fold | –
2 | CCCCCCCCCCCCCCCCn1cc[n+](Cc2ccccc2)c1C.[I-] [NH125] | 0.11 fold | –
3 | Cc1cc(OCc2nnc(SC3CCCC3)n2-c2cccnc2)ccc1-c1ccc(S(C)(=O)=O)cc1 [NMS-873] | 1.90 fold | –
4 | CN1CCN(c2ccc(OC(F)(F)F)c(Nc3ncc4c(n3)-c3c(c(C(N)=O)nn3CCO)CC4)c2)CC1 [NMS-P937 (NMS1286937)] | 0.73 fold | –
5 | CC(C)(Cc1ccc2ccccc2c1)NC[C@@H](O)COc1cccc(Cl)c1C#N [NPS-2143] | 0.99 fold | –
6 | Cc1ccc(S(=O)(=O)c2ccc([N+](=O)[O-])o2)cc1 [NSC697923] | 0.51 fold | –
7 | CCN(CC)CCCC(C)Nc1nc(C)cc(Nc2ccc3nc(C)cc(N)c3c2)n1 (stereo not shown) [NSC 23766] | 1.30 fold | –
8 | C/C(=N\NC(=S)N1CCC1)c1ccccn1 [NSC 319726] | 2.43 fold | –
9 | CCCC(C)NC(=O)c1ccc(Cl)c(Cl)c1 (stereo not shown) [NSC 405020] | 1.24 fold | –
10 | Nc1ncnc2c1c(-c1cccc(OCc3ccccc3)c1)cn2C1CC(CN2CCCC2)C1 (stereo not shown) [NVP-ADW742] | 0.61 fold | –
11 | COc1ccccc1N1CCN(CC(O)COc2cccc3ccccc23)CC1 (stereo not shown) [Naftopidil] | 2.46 fold | –
12 | O=C1CC[C@@]2(O)[C@H]3Cc4ccc(O)c5c4[C@@]2(CCN3CC2CC2)[C@H]1O5 [Naltrexone HCl] | 3.12 fold | –
13 | COc1ccc2cc([C@H](C)C(=O)O)ccc2c1 [Naproxen] | 1.46 fold | –
14 | OC(CNCC(O)C1CCc2cc(F)ccc2O1)C1CCc2cc(F)ccc2O1 (stereo not shown) [Nebivolol] | 0.75 fold | –
15 | CN1C(=O)C(Cc2c[nH]c3ccccc23)NC1=S (stereo not shown) [Necrostatin-1] | 1.60 fold | –
16 | Cc1cn(-c2cc(NC(=O)c3ccc(C)c(Nc4nccc(-c5cccnc5)n4)c3)cc(C(F)(F)F)c2)cn1 [Nilotinib (AMN-107), Nilotinib] | 0.77 fold | –
17 | COC(=O)C1=C(C#N)NC(C)=C(C(=O)OC(C)C)C1c1cccc([N+](=O)[O-])c1 (stereo not shown) [Nilvadipine] | 1.79 fold | –
18 | C[C@]1(O)C[C@@H](c2nc(-c3ccc4ccc(-c5ccccc5)nc4c3)c3c(N)nccn32)C1 [OSI-906 (Linsitinib), Linsitinib] | 0.66 fold | –
19 | NCC(=O)Nc1ccc(-n2nc(C(F)(F)F)cc2-c2ccc3c(ccc4ccccc43)c2)cc1 [OSU-03012 (AR-12)] | 0.31 fold | –
20 | Cc1sc2c(c1C)C(c1ccc(Cl)cc1)=N[C@@H](CC(=O)Nc1ccc(O)cc1)c1nnc(C)n1-2 [OTX015] | 0.43 fold | –
21 | CC(C)(F)C[C@H](N[C@@H](c1ccc(-c2ccc(S(C)(=O)=O)cc2)cc1)C(F)(F)F)C(=O)NC1(C#N)CC1 [Odanacatib (MK-0822), Odanacatib] | 0.90 fold | –
22 | CC[C@@H]1/C=C/C=C/C[C@H](C)[C@H](O)[C@](C)(O)C(=O)[C@H](C)[C@@H](O)[C@H](C)C(=O)[C@H](C)[C@@H](O)[C@H](C)/C=C/C(=O)O[C@H]2[C@@H](C)[C@@H](CC1)O[C@@]1(CC[C@@H](C)[C@@H](C[C@H](C)O)O1)[C@@H]2C [Oligomycin A] | 2.49 fold | –
23 | CCc1c(C(=O)NCCc2ccc(N3CCCCC3)cc2)[nH]c2ccc(Cl)cc12 [Org 27569] | 1.74 fold | –
24 | OCCOc1ccc(/C(=C(/CCCl)c2ccccc2)c2ccccc2)cc1 [Ospemifene] | – | fold increase in IFN-β release: 0.10 fold

Row | Compound | fold increase in IFN-β release [1] | further results
25 | C[C@@H]1O[C@@H](O[C@H]2C[C@@H](O)[C@]3(CO)[C@H]4[C@H](O)C[C@]5(C)[C@@H](C6=CC(=O)OC6)CC[C@]5(O)[C@@H]4CC[C@]3(O)C2)[C@H](O)[C@H](O)[C@H]1O [Ouabain] | 1.08 fold | –
26 | NC(=O)N1c2ccccc2CC(=O)c2ccccc21 [Oxcarbazepine] | 5.22 fold | –
27 | Cc1cc(C(C)(C)C)c(O)c(C)c1CC1=NCCN1 [Oxymetazoline HCl] | 1.16 fold | –
28 | O=C(O)/C=C/c1ccc(Cn2ccnc2)cc1 [Ozagrel HCl] | – | fold increase in IFN-β release (iBMDMs, 3′3′-cGAMP 10 μg/ml, 16 hours, compound 10 μM, HCl): 2.13 fold
29 | O=C(O)/C=C/c1ccc(Cn2ccnc2)cc1 [Ozagrel] | 0.11 fold | –
30 | CC(=O)c1cc([N+](=O)[O-])c(Sc2ccc(F)cc2F)s1 [P22077] | 0.35 fold | –
31 | C=CCc1cccc(/C=N/NC(=O)CN2CCN(Cc3ccccc3)CC2)c1O [PAC-1] | 0.17 fold | –
32 | O=C(NOCC1CC1)c1ccc(F)c(F)c1Nc1ccc(I)cc1Cl [PD184352 (CI-1040)] | 0.94 fold | –
33 | O=C(NOC[C@H](O)CO)c1ccc(F)c(F)c1Nc1ccc(I)cc1F [PD0325901] | 0.39 fold | –
34 | O=C(O)/C(S)=C/c1c[nH]c2ccc(F)cc12 [PD 151746] | 1.92 fold | –
35 | O=C(Nc1cccnc1)N1CCC(Cc2cccc(Oc3ccc(C(F)(F)F)cn3)c2)CC1 [PF-3845] | 2.14 fold | –
36 | CN(c1ncccc1CNc1nc(Nc2ccc3c(c2)CC(=O)N3)ncc1C(F)(F)F)S(C)(=O)=O [PF-562271] | 0.21 fold | –
37 | CS(=O)(=O)c1cccc(CNc2nc(Nc3ccc4c(c3)CCC(=O)N4)ncc2C(F)(F)F)c1 [PF-573228] | 0.87 fold | –
38 | OCCn1cc(-c2cnc3nnn(Cc4ccc5ncccc5c4)c3n2)cn1 [PF-04217903] | 1.49 fold | –
39 | CCc1cncnc1N1CCN(Cc2nc3ccc(C(F)(F)F)cc3[nH]2)CC1 [PF-4708671] | 2.12 fold | –
40 | Cc1cnc(-c2cc(N3CCN(C(=O)CCS(C)(=O)=O)CC3)ncc2Cl)c(C)c1 [PF-5274857] | 0.16 fold | –
41 | COc1ccccc1S(=O)(=O)Nc1ccc2c(c1)CN(C)C(=O)N2 [PFI-1 (PF-6405761)] | 0.52 fold | –
42 | O=C(/C=C/c1ccc2ccccc2n1)c1ccncc1 [PFK15] | 0.68 fold | –
43 | Cc1[nH]c(/C=C2\C(=O)Nc3ccc(S(=O)(=O)Cc4c(Cl)cccc4Cl)cc32)c(C)c1C(=O)N1CCC[C@@H]1CN1CCCC1 [PHA-665752] | 0.43 fold | –
44 | CC(C)CC(=O)Nc1[nH]nc2c1CN(C(=O)C1CCN(C)CC1)C2(C)C [PHA-793887] | 2.28 fold | –
45 | CCCc1ccc(OCC(=O)N(Cc2nc(-c3cccnc3)no2)C(C)C)cc1 [PI-1840] | 0.60 fold | –
46 | COc1cc(OC)c(NC(=O)Nc2cc(C)on2)cc1Cl [PNU-120596] | 0.12 fold | –
47 | CC(C)(C)n1nc(-c2ccc(Cl)cc2)c2c(N)ncnc21 [PP2] | 0.14 fold | –
48 | N#CSc1cc(SC#N)c(N)nc1N [PR-619] | 0.79 fold | –

Row | Compound | fold increase in IFN-β release [1] | further results
49 | Br.COc1cc(Br)c(Nc2nc(-c3c(C)nc4ncccn34)cs2)c(Br)c1 [PTC-209 HBr] | 0.27 fold | –
50 | COc1cc(Br)c(Nc2nc(-c3c(C)nc4ncccn34)cs2)c(Br)c1 [PTC-209] | 2.11 fold | –
51 | CC(C)NCCCn1c(Sc2cc3c(cc2I)OCO3)nc2c(N)ncnc21 [PU-H71] | 1.13 fold | –
52 | CCOC(=O)c1ccc(N2NC(=O)/C(=C/c3ccc([N+](=O)[O-])o3)C2=O)cc1 [PYR-41] | 1.13 fold | –
53 | C1=C/COCc2cc(ccc2OCCN2CCCC2)Nc2nccc(n2)-c2cccc(c2)COC/1 [Pacritinib (SB1518), Pacritinib] | 1.58 fold | –
54 | CC(=O)c1c(C)c2cnc(Nc3ccc(N4CCNCC4)cn3)nc2n(C2CCCC2)c1=O [Palbociclib (PD-0332991) HCl, Palbociclib] | 0.94 fold | –
55 | CC(=O)O[C@H]1C[C@@H]2CC[C@@H]3[C@H](CC[C@@]4(C)[C@H]3C[C@H]([N+]3(C)CCCCC3)[C@@H]4OC(C)=O)[C@@]2(C)C[C@@H]1[N+]1(C)CCCCC1.[Br-].[Br-] [Pancuronium dibromide] | 1.20 fold | –
56 | Cc1[nH]c2ccccc2c1CCNCc1ccc(/C=C/C(=O)NO)cc1 [Panobinostat (LBH589), Panobinostat] | 0.61 fold | –
57 | Oc1cc(O)cc(/C=C/c2ccc(O)c(O)c2)c1 [Piceatannol] | 0.42 fold | –
58 | COc1ccc(-c2nc3ccc(C4=NNC(=O)CC4C)cc3[nH]2)cc1 (stereo not shown) [Pimobendan] | 1.79 fold | –
59 | O=C(NNc1ccccc1)c1ccncc1 [PluriSln #1 (NSC 14613)] | 0.62 fold | –
60 | Nc1cccc2c1C(=O)N(C1CCC(=O)NC1=O)C2=O (stereo not shown) [Pomalidomide] | 2.12 fold | –
61 | C#CCC(Cc1cnc2nc(N)nc(N)c2n1)c1ccc(C(=O)N[C@@H](CCC(=O)O)C(=O)O)cc1 (stereo partly shown) [Pralatrexate] | 4.31 fold | –
62 | CCCN[C@H]1CCc2nc(N)sc2C1 [Pramipexole] | 2.07 fold | –
63 | CC(C)NCC(O)COc1cccc2ccccc12 (stereo not shown) [Propranolol HCl] | 2.07 fold | –
64 | CCc1nc(N)nc(N)c1-c1ccc(Cl)cc1 [Pyrimethamine] | 5.22 fold | –
65 | CC(C)(C)c1cc(NC(=O)Nc2ccc(-c3cn4c(n3)sc3cc(OCCN5CCOCC5)ccc34)cc2)no1 [Quizartinib (AC220), Quizartinib] | 0.91 fold | –
66 | O=C(NCc1cccc(O)c1)Nc1nc(-c2ccncc2)cs1 [RKI-1447] | 2.41 fold | –
67 | Cc1nnc(C(=O)NC(C)(C)c2nc(C(=O)NCc3ccc(F)cc3)c(O)c(=O)n2C)o1 [Raltegravir (MK-0518), Raltegravir] | 4.80 fold | –
68 | CCC(=O)NCC[C@@H]1CCc2ccc3c(c21)CCO3 [Ramelteon] | 0.56 fold | –
69 | CNC(=C[N+](=O)[O-])NCCSCc1ccc(CN(C)C)o1 [Ranitidine] | 2.87 fold | –
70 | C#CCN[C@@H]1CCc2ccccc21 [Rasagiline Mesylate] | 1.77 fold | –

Reference: patent US11179412B2, “Methods of treating conditions involving elevated inflammatory response” (University of Pittsburgh—Of the Commonwealth System of …, priority 2017, dated 2021)
